Measured values from US5300491A, “Treatment of protozoal infection” (priority 1992, dated 1994).
In brackets after ≈: the same amount, converted by molar mass. Several values for one entry are separate records, joined by “and”; a condition that tells them apart may be missing. Equal values may be shown once. Read-outs that look alike come from different tables or passages of the source.

Tests used:
Tritrichomonas gallinae = Tritrichomonas gallinae assay (MLC); assay type: cell-based; conditions: isolate GH85; anaerobic
Method: A single T. gallinae isolate was collected and treated with bacitracin or zinc bacitracin in accordance with the procedure of Example IV. Duplicate plates of the isolate were prepared. one plate was exposed to an aerobic environment. The second plate was exposed to an anaerobic environment.

Giardia lamblia = assay type: cell-based; conditions: Portland isolate; anaerobic; 24 hours; two lines of values
Method: A Portland isolate of G. lamblia was treated with bacitracin and zinc bacitracin according to the procedure of Example IV. An Oxoid HP 11 anaerobic gas chamber and BR 38 gas generating kit were used to produce an anaerobic environment. […] The parasites were incubated in the presence of the treating reagent for 2 4 hours. The viability of the parasites was based on morphology and motility.

E. histolvtica = conditions: fifty South African patients; 2.4 g daily for 5 days; cited from earlier work
Trichomonas vaginalis [1] = assay: Trichomonas vaginalis assay (MLC, aerobic and anaerobic); assay type: cell-based
Method: (§1) All isolates were treated with either bacitracin or zinc bacitracin.
(§2) Prior to being diluted with the medium, the bacitracins were initially solubilized in water to 250 mg/ml. The zinc salt was solubilized in acidified water (60 μl HC1/ml). Duplicate plates of each isolate were prepared. one set of plates was exposed to an aerobic environment; and, the second set was exposed to an anaerobic environment. An Oxoid HP 11 anaerobic gas chamber and BR 38 gas generating kit were used to produce the anaerobic environment.

T. foetus = conditions: cited from earlier work; for side effects: in vivo
Trichomonas vaginalis [2] = assay: Trichomonas vaginalis assay of other divalent metal salts of bacitracin (MIC); assay type: cell-based
Method: as §1, §2
The procedure of Example IV was repeated, substituting bacitracin salts of the following metals for zinc bacitracin: nickel, cadmium, cobalt, manganese, copper and iron. The MLCs of the bacitracin salts were out of range. However, the MICs indicate that, with the exception of ferrous bacitracin, complexation with a divalent metal salt enhanced the activity of bacitracin.

In the case of `Cc1ncc([N+](=O)[O-])n1CCO` [Metronidazole], the MLC (Tritrichomonas gallinae) is reported as 2 µg/mL (≈ 11.7 µM), the “MLC (first of the two columns per drug)” value (Giardia lamblia) is reported as < 1 µg/mL and the “MLC (second of the two columns per drug)” value (Giardia lamblia) is reported as 2 µg/mL and < 1 µg/mL. For the same compound, the “treatment failure with persistent disease” value (E. histolvtica) was 55%, the MLC (Trichomonas vaginalis [1]; isolate 1031, metronidazole-sensitive, aerobic) was 40 µg/mL (≈ 234 µM) and the MLC (Trichomonas vaginalis [1]; isolate 1031, metronidazole-sensitive, anaerobic) was 4 µg/mL (≈ 23.4 µM). The MLC (Trichomonas vaginalis [1]; isolate 1043, metronidazole-sensitive, aerobic) was 20 µg/mL (≈ 117 µM), the MLC (Trichomonas vaginalis [1]; isolate 1043, metronidazole-sensitive, anaerobic) was < 1 µg/mL and the MLC (Trichomonas vaginalis [1]; isolate 1044, metronidazole-sensitive, aerobic) was < 10 µg/mL. The MLC (Trichomonas vaginalis [1]; isolate 1044, metronidazole-sensitive, anaerobic) was < 1 µg/mL, the MLC (Trichomonas vaginalis [1]; isolate 1064, metronidazole-sensitive, anaerobic) was < 1 µg/mL and the MLC (Trichomonas vaginalis [1]; isolate 1065, metronidazole-sensitive, aerobic) was < 10 µg/mL. The MLC (Trichomonas vaginalis [1]; isolate 1065, metronidazole-sensitive, anaerobic) was < 1 µg/mL, the MLC (Trichomonas vaginalis [1]; isolate 1165, metronidazole-sensitive, aerobic) was 40 µg/mL (≈ 234 µM) and the MLC (Trichomonas vaginalis [1]; isolate 1165, metronidazole-sensitive, anaerobic) was < 1 µg/mL. For the same compound, the MLC (Trichomonas vaginalis [1]; isolate 1910, metronidazole-sensitive, aerobic) was 40 µg/mL (≈ 234 µM), the MLC (Trichomonas vaginalis [1]; isolate 1910, metronidazole-sensitive, anaerobic) was 2 µg/mL (≈ 11.7 µM) and the MLC (Trichomonas vaginalis [1]; isolate 6950, metronidazole-sensitive, aerobic) was 20 µg/mL (≈ 117 µM). For the same compound, the MLC (Trichomonas vaginalis [1]; isolate 6950, metronidazole-sensitive, anaerobic) was 2 µg/mL (≈ 11.7 µM), the MLC (Trichomonas vaginalis [1]; isolate 89532.2, metronidazole-insensitive, aerobic) was 200 µg/mL (≈ 1170 µM) and the MLC (Trichomonas vaginalis [1]; isolate 89532.2, metronidazole-insensitive, anaerobic) was 2 µg/mL (≈ 11.7 µM). For the same compound, the MLC (Trichomonas vaginalis [1]; isolate 90576, metronidazole-insensitive, aerobic) was 80 µg/mL (≈ 467 µM), the MLC (Trichomonas vaginalis [1]; isolate 90576, metronidazole-insensitive, anaerobic) was 2 µg/mL (≈ 11.7 µM) and the MLC (Trichomonas vaginalis [1]; isolate CDC85, metronidazole-insensitive, aerobic) was 200 µg/mL (≈ 1170 µM). It also gave an MLC (Trichomonas vaginalis [1]; isolate CDC85, metronidazole-insensitive, anaerobic) of 20 µg/mL (≈ 117 µM), an MLC (Trichomonas vaginalis [1]; isolate IR78, metronidazole-insensitive, aerobic) of 200 µg/mL (≈ 1170 µM) and an MLC (Trichomonas vaginalis [1]; isolate IR78, metronidazole-insensitive, anaerobic) of 4 µg/mL (≈ 23.4 µM). It also gave an MLC (Trichomonas vaginalis [1]; isolate PHLS289, metronidazole-insensitive, aerobic) of 60 µg/mL (≈ 351 µM), an MLC (Trichomonas vaginalis [1]; isolate PHLS289, metronidazole-insensitive, anaerobic) of 8 µg/mL (≈ 46.7 µM) and an MLC (Trichomonas vaginalis [1]; isolate STH-1, metronidazole-insensitive, aerobic) of 60 µg/mL (≈ 351 µM). For the same compound, the MLC (Trichomonas vaginalis [1]; isolate STH-1, metronidazole-insensitive, anaerobic) was 8 µg/mL (≈ 46.7 µM), the MLC (Trichomonas vaginalis [1]; isolate UCH-1, metronidazole-sensitive, aerobic) was 40 µg/mL (≈ 234 µM) and the MLC (Trichomonas vaginalis [1]; isolate UCH-1, metronidazole-sensitive, anaerobic) was 4 µg/mL (≈ 23.4 µM). The MLC (Trichomonas vaginalis [1]; isolate UCH-2, metronidazole-sensitive, aerobic) was < 10 µg/mL, the MLC (Trichomonas vaginalis [1]; isolate UCH-2, metronidazole-sensitive, anaerobic) was 2 µg/mL (≈ 11.7 µM) and the MLC (Trichomonas vaginalis [1]; isolate UCH-M1, metronidazole-sensitive, aerobic) was 20 µg/mL (≈ 117 µM). The MLC (Trichomonas vaginalis [1]; isolate UCH-M1, metronidazole-sensitive, anaerobic) was 4 µg/mL (≈ 23.4 µM), the MLC (Trichomonas vaginalis [1]; isolate UOB-1, metronidazole-sensitive, aerobic) was 20 µg/mL (≈ 117 µM) and the MLC (Trichomonas vaginalis [1]; isolate UOB-1, metronidazole-sensitive, anaerobic) was < 1 µg/mL.
For `Cc1ncc([N+](=O)[O-])n1C` [dimetridazole], the side effects (T. foetus; iv) is given as “respiratory difficulty, ataxia and lung collapse”, the side effects (T. foetus; po) is given as “rumen stasis and anorexia” and the effectiveness (T. foetus; multiple oral doses) is given as “moderately effective”. For the same compound, the effectiveness (T. foetus; single intravenous administration) was “moderately effective”.
In the case of Cadmium Bacitracin, the MIC (Trichomonas vaginalis [2]; T. vaginalis isolate 1910) is reported as 150 µg/mL and the MIC (Trichomonas vaginalis [2]; T. vaginalis isolate UCH1) is reported as 310 µg/mL.
Cobalt Bacitracin showed an MIC (Trichomonas vaginalis [2]; T. vaginalis isolate 1910) of 1250 µg/mL and an MIC (Trichomonas vaginalis [2]; T. vaginalis isolate UCH1) of 1250 µg/mL.
Work on Copper Bacitracin yielded an MIC (Trichomonas vaginalis [2]; T. vaginalis isolate 1910) of 1250 µg/mL and an MIC (Trichomonas vaginalis [2]; T. vaginalis isolate UCH1) of 2500 µg/mL.
With Ferrous Bacitracin the MIC (Trichomonas vaginalis [2]; T. vaginalis isolate 1910) was > 10000 µg/mL and the MIC (Trichomonas vaginalis [2]; T. vaginalis isolate UCH1) was > 10000 µg/mL.
Manganese Bacitracin showed an MIC (Trichomonas vaginalis [2]; T. vaginalis isolate 1910) of 1260 µg/mL and an MIC (Trichomonas vaginalis [2]; T. vaginalis isolate UCH1) of 150 µg/mL.
Compound Nickel Bacitracin has an MIC (Trichomonas vaginalis [2]; T. vaginalis isolate 1910) of 2500 µg/mL and an MIC (Trichomonas vaginalis [2]; T. vaginalis isolate UCH1) of 1250 µg/mL.
